# Laboratory results: ChEMBL document CHEMBL1817669, “Design and pharmacological evaluation of PF-4840154, a non-electrophilic reference agonist of the TrpA1 channel” (Bioorg Med Chem Lett, 2011)
# The source made the active and inactive calls. The calls are words filed in the database; no cut-off is given here.
# Assays:
# [1] = target: Transient receptor potential cation channel subfamily A member 1 (Rattus norvegicus, UniProt Q6RI86); assay: Agonist activity at rat TRPA1 channel expressed in HEK293 cells assessed as calcium influx measured at every 1 second for 60 seconds by fluorescence analysis; type: functional, cell-based
# [2] = target: Transient receptor potential cation channel subfamily A member 1 (Homo sapiens, UniProt O75762); assay: Agonist activity at human TRPA1 channel expressed in HEK293 cells assessed as calcium influx measured at every 1 second for 60 seconds by fluorescence analysis; type: functional, cell-based
# [3] = target: Transient receptor potential cation channel subfamily A member 1 (Rattus norvegicus) (UniProt Q6RI86); assay: Agonist activity at rat TRPA1 channel expressed in HEK293 cells assessed as calcium influx at 10 uM measured at every 1 second for 60 seconds by fluorescence analysis; type: functional, cell-based
# [4] = target: Transient receptor potential cation channel subfamily V member 1 (Homo sapiens) (UniProt Q8NER1); assay: Agonist activity at human TRPV1 receptor; type: functional
# [5] = target: Transient receptor potential cation channel subfamily V member 4 (Homo sapiens) (UniProt Q9HBA0); assay: Agonist activity at human TRPV4 receptor; type: functional
# [6] = target: Transient receptor potential cation channel subfamily M member 8 (Homo sapiens) (UniProt Q7Z2W7); assay: Agonist activity at human TRPM8 receptor; type: functional
# [7] = target: Transient receptor potential cation channel subfamily V member 1 (Homo sapiens) (UniProt Q8NER1); assay: Antagonist activity at human TRPV1 receptor; type: functional
# [8] = target: Transient receptor potential cation channel subfamily V member 4 (Homo sapiens) (UniProt Q9HBA0); assay: Antagonist activity at human TRPV4 receptor; type: functional
# [9] = Aqueous solubility of the compound at pH 7.4; type: physicochemical
# Mus musculus [10] = species on record: Mus musculus; assay: Antinociceptive activity against formalin-induced inflammatory pain in Trpa1-positive CD1 mouse assessed as increase in time spent in paw licking at 30 nmol, intraplantar measured every 5 mins for 60 mins; type: functional, organism-based
# [11] = target: Sodium-dependent dopamine transporter (Homo sapiens) (UniProt Q01959); assay: Inhibition of dopamine transporter at 1.6 uM
# Mus musculus [12] = species on record: Mus musculus; assay: Antinociceptive activity against formalin-induced inflammatory pain in Trpa1-knock out CD1 mouse assessed as increase in time spent in paw licking at 30 nmol, intraplantar measured every 5 mins for 60 mins; type: functional, organism-based
# [13] = target: Sodium-dependent noradrenaline transporter (Homo sapiens) (UniProt P23975); assay: Inhibition of noradrenaline transporter at 2.8 uM
# [14] = Inhibition of chloride channel at 1.5 uM
# [15] = target: Transient receptor potential cation channel subfamily M member 8 (Homo sapiens) (UniProt Q7Z2W7); assay: Antagonist activity at human TRPM8 receptor; type: functional
# [16] = Inhibition of sigma receptor at 1.1 uM
# Mus musculus [17] = assay: Antinociceptive activity against formalin-induced inflammatory pain in Trpa1-positive CD1 mouse assessed as increase in time spent in paw licking at 30 nmol, intraplantar measured every 5 mins for 60 mins in pretreated with 100 mg/kg Trpa1 antagonist HC003031; type: functional, organism-based; parameters: dose 100 mg/kg
# [18] = target: D(3) dopamine receptor (Homo sapiens) (UniProt P35462); assay: Inhibition of dopamine D3 receptor at 1.9 uM
# Sequence of Transient receptor potential cation channel subfamily A member 1 (Homo sapiens, UniProt O75762) (O75762 whole entry): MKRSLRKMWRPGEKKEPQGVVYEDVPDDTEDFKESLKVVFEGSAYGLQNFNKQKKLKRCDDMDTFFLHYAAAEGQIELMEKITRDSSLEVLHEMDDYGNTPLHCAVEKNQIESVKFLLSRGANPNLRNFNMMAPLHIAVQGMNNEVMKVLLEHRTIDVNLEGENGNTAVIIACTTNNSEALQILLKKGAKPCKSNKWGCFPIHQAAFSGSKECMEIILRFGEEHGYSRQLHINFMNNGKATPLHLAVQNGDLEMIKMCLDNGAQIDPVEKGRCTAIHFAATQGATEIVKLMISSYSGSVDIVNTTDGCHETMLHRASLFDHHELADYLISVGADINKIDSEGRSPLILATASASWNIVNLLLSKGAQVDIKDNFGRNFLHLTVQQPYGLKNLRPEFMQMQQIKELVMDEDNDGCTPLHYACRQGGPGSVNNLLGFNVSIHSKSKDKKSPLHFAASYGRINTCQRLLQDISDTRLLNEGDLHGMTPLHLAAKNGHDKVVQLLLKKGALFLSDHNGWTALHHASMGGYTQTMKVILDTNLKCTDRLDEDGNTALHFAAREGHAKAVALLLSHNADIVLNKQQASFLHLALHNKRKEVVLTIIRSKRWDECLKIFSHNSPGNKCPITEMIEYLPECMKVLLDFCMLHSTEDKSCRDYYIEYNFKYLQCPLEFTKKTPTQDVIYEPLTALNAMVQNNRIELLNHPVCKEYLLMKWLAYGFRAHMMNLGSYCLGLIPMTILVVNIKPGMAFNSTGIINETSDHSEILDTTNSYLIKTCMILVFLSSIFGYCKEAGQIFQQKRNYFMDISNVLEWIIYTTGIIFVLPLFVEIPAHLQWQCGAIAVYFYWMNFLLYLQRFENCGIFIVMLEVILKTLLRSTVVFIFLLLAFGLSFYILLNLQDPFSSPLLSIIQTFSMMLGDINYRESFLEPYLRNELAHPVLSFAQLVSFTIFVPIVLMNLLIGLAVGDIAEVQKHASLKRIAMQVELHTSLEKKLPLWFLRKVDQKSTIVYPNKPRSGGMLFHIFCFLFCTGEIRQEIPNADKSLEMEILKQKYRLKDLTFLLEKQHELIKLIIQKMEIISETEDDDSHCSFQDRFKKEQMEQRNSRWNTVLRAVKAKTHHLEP
# Sequence of Transient receptor potential cation channel subfamily A member 1 (Rattus norvegicus, UniProt Q6RI86) (Q6RI86 whole entry): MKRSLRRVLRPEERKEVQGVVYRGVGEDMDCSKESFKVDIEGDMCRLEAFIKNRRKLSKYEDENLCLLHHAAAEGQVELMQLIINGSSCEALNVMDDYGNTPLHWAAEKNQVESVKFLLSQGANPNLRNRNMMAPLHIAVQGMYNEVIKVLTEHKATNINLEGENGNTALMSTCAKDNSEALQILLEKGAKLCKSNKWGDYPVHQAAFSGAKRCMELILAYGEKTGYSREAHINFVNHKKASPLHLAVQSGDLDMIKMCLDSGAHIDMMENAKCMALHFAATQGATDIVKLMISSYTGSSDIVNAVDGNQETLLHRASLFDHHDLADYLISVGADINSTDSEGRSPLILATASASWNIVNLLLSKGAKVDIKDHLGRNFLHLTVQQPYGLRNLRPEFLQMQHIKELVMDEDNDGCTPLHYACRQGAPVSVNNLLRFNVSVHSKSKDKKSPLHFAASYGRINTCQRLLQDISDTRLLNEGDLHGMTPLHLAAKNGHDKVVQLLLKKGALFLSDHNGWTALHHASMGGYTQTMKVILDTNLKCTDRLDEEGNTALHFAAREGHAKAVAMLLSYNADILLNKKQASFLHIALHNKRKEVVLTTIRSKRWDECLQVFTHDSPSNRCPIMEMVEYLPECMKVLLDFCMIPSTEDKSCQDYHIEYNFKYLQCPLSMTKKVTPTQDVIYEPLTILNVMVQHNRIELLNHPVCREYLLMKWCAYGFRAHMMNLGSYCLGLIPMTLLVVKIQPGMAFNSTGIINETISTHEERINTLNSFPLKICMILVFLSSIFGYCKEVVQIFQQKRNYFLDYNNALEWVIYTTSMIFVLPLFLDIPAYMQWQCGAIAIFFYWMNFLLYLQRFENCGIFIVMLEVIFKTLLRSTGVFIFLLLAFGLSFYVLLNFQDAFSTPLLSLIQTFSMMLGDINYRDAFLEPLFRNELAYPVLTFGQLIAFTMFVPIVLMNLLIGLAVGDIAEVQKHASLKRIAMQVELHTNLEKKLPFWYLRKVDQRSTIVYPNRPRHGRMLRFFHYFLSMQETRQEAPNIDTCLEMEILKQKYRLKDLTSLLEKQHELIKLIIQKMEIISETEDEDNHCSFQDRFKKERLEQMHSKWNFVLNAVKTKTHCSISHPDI
# Sequence of Transient receptor potential cation channel subfamily V member 1 (Homo sapiens) (Q8NER1 whole entry): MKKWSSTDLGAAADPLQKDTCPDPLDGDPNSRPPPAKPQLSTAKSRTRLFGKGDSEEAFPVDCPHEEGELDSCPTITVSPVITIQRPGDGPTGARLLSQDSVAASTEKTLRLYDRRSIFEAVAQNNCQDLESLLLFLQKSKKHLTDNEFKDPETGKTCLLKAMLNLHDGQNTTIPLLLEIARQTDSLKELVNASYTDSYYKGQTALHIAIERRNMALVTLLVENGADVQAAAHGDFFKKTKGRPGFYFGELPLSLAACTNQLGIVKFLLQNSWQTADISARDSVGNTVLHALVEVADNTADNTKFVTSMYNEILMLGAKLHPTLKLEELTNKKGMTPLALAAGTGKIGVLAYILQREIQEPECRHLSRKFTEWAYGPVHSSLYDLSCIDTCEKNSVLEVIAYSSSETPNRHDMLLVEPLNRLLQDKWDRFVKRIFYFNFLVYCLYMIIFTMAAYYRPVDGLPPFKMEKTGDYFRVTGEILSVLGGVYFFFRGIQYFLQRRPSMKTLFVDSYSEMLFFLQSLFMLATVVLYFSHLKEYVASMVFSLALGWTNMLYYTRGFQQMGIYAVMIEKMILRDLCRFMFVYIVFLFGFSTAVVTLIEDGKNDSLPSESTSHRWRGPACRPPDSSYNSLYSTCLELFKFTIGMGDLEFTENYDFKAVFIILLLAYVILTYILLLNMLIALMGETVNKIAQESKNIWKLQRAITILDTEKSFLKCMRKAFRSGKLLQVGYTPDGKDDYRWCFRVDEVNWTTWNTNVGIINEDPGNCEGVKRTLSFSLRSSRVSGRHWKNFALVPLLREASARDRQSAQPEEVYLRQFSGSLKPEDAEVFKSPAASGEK
# Sequence of Transient receptor potential cation channel subfamily V member 4 (Homo sapiens) (Q9HBA0 whole entry): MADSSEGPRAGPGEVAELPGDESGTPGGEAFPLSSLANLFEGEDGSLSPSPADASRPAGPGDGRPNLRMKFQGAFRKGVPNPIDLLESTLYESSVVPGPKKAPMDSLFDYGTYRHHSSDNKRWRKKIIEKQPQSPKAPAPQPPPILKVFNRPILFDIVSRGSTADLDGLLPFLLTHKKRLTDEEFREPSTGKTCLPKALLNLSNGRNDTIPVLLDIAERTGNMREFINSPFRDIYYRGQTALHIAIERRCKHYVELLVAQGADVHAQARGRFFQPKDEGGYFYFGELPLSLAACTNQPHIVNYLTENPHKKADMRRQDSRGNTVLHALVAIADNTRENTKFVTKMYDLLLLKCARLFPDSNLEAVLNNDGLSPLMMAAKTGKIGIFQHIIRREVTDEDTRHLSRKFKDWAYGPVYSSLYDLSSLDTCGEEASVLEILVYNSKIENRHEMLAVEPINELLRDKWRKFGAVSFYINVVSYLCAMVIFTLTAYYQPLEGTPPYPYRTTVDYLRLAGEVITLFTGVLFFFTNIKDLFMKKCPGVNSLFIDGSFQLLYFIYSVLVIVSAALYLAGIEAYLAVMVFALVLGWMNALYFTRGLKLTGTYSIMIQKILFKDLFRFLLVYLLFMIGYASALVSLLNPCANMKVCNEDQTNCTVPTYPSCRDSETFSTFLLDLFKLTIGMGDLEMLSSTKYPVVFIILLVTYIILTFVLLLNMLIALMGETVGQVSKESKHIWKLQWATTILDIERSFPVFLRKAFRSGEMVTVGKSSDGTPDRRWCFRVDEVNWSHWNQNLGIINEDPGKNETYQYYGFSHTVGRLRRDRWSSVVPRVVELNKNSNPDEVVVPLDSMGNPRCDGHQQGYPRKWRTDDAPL
# Sequence of Transient receptor potential cation channel subfamily M member 8 (Homo sapiens) (Q7Z2W7 whole entry, looked up): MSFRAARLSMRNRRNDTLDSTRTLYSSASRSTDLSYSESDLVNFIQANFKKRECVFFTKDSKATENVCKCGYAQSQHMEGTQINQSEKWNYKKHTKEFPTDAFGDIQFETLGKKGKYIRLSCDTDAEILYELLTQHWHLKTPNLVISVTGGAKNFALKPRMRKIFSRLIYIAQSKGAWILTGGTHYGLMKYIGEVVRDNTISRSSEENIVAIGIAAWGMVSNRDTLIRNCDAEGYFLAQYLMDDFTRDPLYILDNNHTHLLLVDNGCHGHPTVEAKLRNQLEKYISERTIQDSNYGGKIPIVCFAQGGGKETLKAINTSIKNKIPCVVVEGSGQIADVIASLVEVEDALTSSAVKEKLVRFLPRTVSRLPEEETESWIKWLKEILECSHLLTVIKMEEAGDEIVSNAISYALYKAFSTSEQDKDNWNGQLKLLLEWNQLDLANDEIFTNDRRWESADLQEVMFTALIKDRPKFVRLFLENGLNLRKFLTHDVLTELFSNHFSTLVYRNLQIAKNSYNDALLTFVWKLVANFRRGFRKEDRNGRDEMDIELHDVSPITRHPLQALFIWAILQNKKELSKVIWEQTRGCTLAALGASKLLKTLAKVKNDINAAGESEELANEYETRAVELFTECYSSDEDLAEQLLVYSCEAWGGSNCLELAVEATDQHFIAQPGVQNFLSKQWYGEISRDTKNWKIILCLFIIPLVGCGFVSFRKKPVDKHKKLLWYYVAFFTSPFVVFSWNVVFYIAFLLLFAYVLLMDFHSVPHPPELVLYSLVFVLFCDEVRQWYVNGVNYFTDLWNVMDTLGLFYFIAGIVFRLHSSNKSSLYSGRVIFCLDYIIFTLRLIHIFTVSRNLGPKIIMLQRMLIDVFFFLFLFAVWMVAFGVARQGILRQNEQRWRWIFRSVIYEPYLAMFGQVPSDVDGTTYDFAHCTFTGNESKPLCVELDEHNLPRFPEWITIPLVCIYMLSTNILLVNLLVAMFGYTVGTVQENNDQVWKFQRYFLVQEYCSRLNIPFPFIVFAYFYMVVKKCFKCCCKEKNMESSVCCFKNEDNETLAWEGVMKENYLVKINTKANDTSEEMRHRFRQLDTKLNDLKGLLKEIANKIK
# Sequence of Transient receptor potential cation channel subfamily A member 1 (Rattus norvegicus) (Q6RI86 whole entry): as the sequence (Q6RI86 whole entry) above
EC50 [1] [nM],EC50 ([2]; read-out: EC50) [nM],EC50 ([2]; hek293),SMILES,other results
175,79,,CC(C)CNc1nc(N2CCN(Cc3ccccc3)CC2)ncc1C(=O)NCc1ccccc1,
468,,Not Active,O=C(NCc1ccccc1)c1cnc(N2CCN(Cc3ccccc3)CC2)nc1NC1CC1,
,,Not Active,CCCCN1CCN(c2ncc(C(=O)NCc3ccccc3)c(NC3CC3)n2)CC1,activation [3]: 30%
2250,,Not Active,CC(C)CNc1nc(N2CCN(Cc3ccccc3)CC2)ncc1C(=O)NCc1ccccn1,
5600,,Not Active,O=C(NCc1ccccc1)c1cnc(N2CCN(C(=O)c3ccccc3)CC2)nc1NC1CC1,
97,23,,CC(C)CNc1nc(N2CCN(CC3CCCOC3)CC2)ncc1C(=O)NCc1ccccc1 (stereo not given),Activity [4]: inactive; Activity [5]: inactive; Activity [6]: inactive; Activity [7]: inactive; Activity [8]: inactive; solubility [9]: 6.4 µM; Activity (Mus musculus [10]): Active; inhibition [11]: < 10%; Activity (Mus musculus [12]): inactive; inhibition [13]: < 10%; inhibition [14]: < 10%; Activity [15]: inactive; inhibition [16]: < 10%; Activity (Mus musculus [17]): inactive; inhibition [18]: < 10%
215,49,,CC(C)CNc1nc(N2CCN(Cc3ccccc3)CC2)ncc1C(=O)NCc1cccnc1,
848,109,,O=C(NCc1ccccc1)c1cnc(N2CCN(CC3CCCOC3)CC2)nc1NC1CC1 (stereo not given),
581,,Not Active,COCCNC(=O)c1cnc(N2CCN(Cc3ccccc3)CC2)nc1NCC(C)C,
186,27,,O=C(NCc1ccccc1)c1cnc(N2CCN(C(=O)c3c(F)cccc3F)CC2)nc1NC1CC1,
